# Experimental data taken from patent EP1731520A1, “Pyrrolo[2,3-d]pyrimidine derivatives which are antagonists of adenosine A1, A2A, and A3” (OSI Pharmaceuticals, Inc., priority 1999, dated 2001).
# Target: human A1 receptor subtype (Homo sapiens, UniProt P30542)
# Assay: not given
# Conditions: Table 15, Adenosine A1 Receptor Selective Compounds
# Sequence of human A1 receptor subtype (P30542 whole entry): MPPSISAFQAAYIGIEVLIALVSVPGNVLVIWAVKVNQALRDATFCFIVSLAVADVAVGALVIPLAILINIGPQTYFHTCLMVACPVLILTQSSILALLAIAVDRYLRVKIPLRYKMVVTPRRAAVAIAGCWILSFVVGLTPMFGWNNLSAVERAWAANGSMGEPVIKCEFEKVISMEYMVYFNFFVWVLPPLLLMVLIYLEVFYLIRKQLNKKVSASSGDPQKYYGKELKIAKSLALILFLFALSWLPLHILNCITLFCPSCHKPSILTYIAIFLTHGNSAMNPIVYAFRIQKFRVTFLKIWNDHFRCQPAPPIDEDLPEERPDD
row,Compound,Ki-A1 (selectivity versus other three subtypes)
1,CNC(=O)NC1CCCCC1Nc1nc(-c2ccccc2)nc2[nH]c(C)c(C)c12 (centres unmarked) [Compound 1500],* (at least 10 times more selective than other three subtypes.)
2,CC(=O)NCCNc1nc(-c2ccccc2)nc2[nH]ccc12 [Compound 1501],* (at least 10 times more selective than other three subtypes.)
3,CNC(=O)NCCNc1nc(-c2cccc(Cl)c2)nc2[nH]ccc12 [Compound 1502],* (at least 10 times more selective than other three subtypes.)
4,O[C@H]1CC[C@H](Nc2nc(-c3ccccc3)nc3[nH]c(CN4CCOCC4)cc23)CC1 [Compound 1503],* (at least 10 times more selective than other three subtypes.)
5,O[C@H]1CC[C@H](Nc2nc(-c3ccccc3)nc3[nH]c(CN4CCSCC4)cc23)CC1 [Compound 1504],* (at least 10 times more selective than other three subtypes.)

# Same assay, conditions: read-out: Al Binding Ki; Table 6, Effect of N6-Substituent
row,Compound,Ki [nM]
1,Cc1[nH]c2nc(-c3ccccc3)nc(NC3CCC(NS(C)(=O)=O)CC3)c2c1C (centres unmarked) [Compound 604],> 10
2,Cc1[nH]c2nc(-c3ccccc3)nc(NC3CCC(OC(=O)c4ccccc4)CC3)c2c1C (centres unmarked) [Compound 611],786
3,Cc1[nH]c2nc(-c3ccccc3)nc(N[C@@H]3C[C@@H](O)[C@@H](O)C3)c2c1C [Compound 616],34.3

# Same assay, conditions: read-out: Al Binding Ki; Table 7, Effect of C2-Substituent
row,Compound,Ki [nM]
1,Cc1[nH]c2nc(C(C)C)nc(N[C@H]3CC[C@H](O)CC3)c2c1C [Compound 708],2140
2,Cc1[nH]c2nc(-c3ccccc3F)nc(N[C@H]3CC[C@H](O)CC3)c2c1C [Compound 709],48.7

# Same assay, conditions: saturation and competition radio ligand binding
row,Compound,A1 receptor binding affinity compared with reference compounds 1318 or 1319
1,"1-[6-(4-Hydroxy-4-phenyl-piperidin-1-yl-methyl)-2-phenyl-7H-pyrrolo[2,3-d]pyrimidin-4-yl]-pyrrolidine-2-carboxylic acid amide [Compound 1505]",equaled or surpassed
2,NC(=O)[C@@H]1CCCN1c1nc(-c2ccccc2)nc2[nH]ccc12 [Compound 1506],equaled or surpassed
3,COCc1cc2c(N3CCC[C@H]3C(N)=O)nc(-c3ccccc3)nc2[nH]1 [Compound 1507],equaled or surpassed
4,"NC(=O)C1CC(O)CN1c1nc(-c2ccccc2)nc2[nH]ccc12 (centres unmarked) [Compound 1508, 4-Hydroxy-1-(2-phenyl-7H-pyrrolo[2,3-d]pyrimidin-4-yl]-pyrrolidine-2-carboxylic acid amide]",equaled or surpassed
5,"NC(=O)[C@@H]1CCCN1c1nc(-c2ccccc2)nc2[nH]c(CCC(=O)O)cc12 [Compound 1509, 3-[4-((S)-2-Carbamoyl-pyrrolodin-1-yl)-2-phenyl-7H-pyrrolo[2,3-d]pyrimidin-6-yl]-propionic acid]",equaled or surpassed
6,NC(=O)COCc1cc2c(N3CCC[C@H]3C(N)=O)nc(-c3ccccc3)nc2[nH]1 [Compound 1510],equaled or surpassed
7,"NC(=O)C1CCCN1c1nc(-c2ccccc2)nc2[nH]c(C(=O)O)cc12 (centres unmarked) [Compound 1511, [4-(2-Carbamoylpyrrolidin-1-yl)-2-phenyl-7H-pyrrolo[2,3-d]pyrimidine-6-carboxylic acid]]",equaled or surpassed
8,"Cc1cc2c(N3CCC[C@H]3C(N)=O)nc(-c3ccccc3)nc2[nH]1 [Compound 1512, 1-(6-methyl-2-phenyl-7H-pyrrolo[2,3-d]pyrimidine-4-yl)-(S)-pyrrolidine-2-carboxylic acid amide]",equaled or surpassed
9,"NC(=O)C1CCCN1c1nc(-c2ccccc2)nc2[nH]c(COCCO)cc12 (centres unmarked) [Compound 1513, 1-[6-(2-Hydroxy-ethoxymethyl) -2-phenyl-7H-pyrrolo[2,3-d]pyrimidin-4-yl]-pyrrolidine-2-carb oxylic acid amide]",equaled or surpassed
10,"OC1CCC(Nc2nc(-c3ccccc3)nc3[nH]c(Cn4ccnc4)cc23)CC1 (centres unmarked) [Compound 1514, 4-(6-Imidazol-1-ylmethyl-2-phenyl-7H-pyrrolo[2,3-d]pyrimidin-4-ylamino)-cyclohexanol]",equaled or surpassed
11,OCCOCc1cc2c(N[C@H]3CC[C@H](O)CC3)nc(-c3ccccc3)nc2[nH]1 [Compound 1516],equaled or surpassed
12,"COC(=O)c1cc2c(NC3CCC(O)CC3)nc(-c3ccccc3)nc2[nH]1 (centres unmarked) [Compound 1517, 4-(4-Hydroxy-cyclohexylamino) -2-phenyl-7H-pyrrolo[2,3-d]pyrimidine-6-carboxylic acid methyl ester]",equaled or surpassed
13,"COC(=O)COCc1cc2c(N3CCCC3C(N)=O)nc(-c3ccccc3)nc2[nH]1 (centres unmarked) [Compound 1518, [4-(2-Carbamoyl-pyrrolidin-1-yl) -2-phenyl-7H-pyrrolo[2,3-d]pyrimidin-6-ylmethoxy]-acetic acid methyl ester]",equaled or surpassed
14,"NC(=O)C1CCCN1c1nc(-c2ccccc2)nc2[nH]c(COCC(=O)O)cc12 (centres unmarked) [Compound 1519, [4-(2-Carbamoyl-pyrrolidin-1-yl) -2-phenyl-7H-pyrrolo[2,3-d]pyrimidin-6-ylmethoxy]-acetic acid]",equaled or surpassed
15,"NC(=O)c1cc2c(NC3CCC(O)CC3)nc(-c3ccccc3)nc2[nH]1 (centres unmarked) [Compound 1520, 4-(4-Hydroxy-cyclohexylamino)-2-phenyl-7H-pyrrolo[2,3-d]pyrimidine-6-carboxylic acid amide]",equaled or surpassed

# Target: T1, human A3 receptor subtype (Homo sapiens, UniProt P0DMS8)
# T1 sequence (P0DMS8 1-318): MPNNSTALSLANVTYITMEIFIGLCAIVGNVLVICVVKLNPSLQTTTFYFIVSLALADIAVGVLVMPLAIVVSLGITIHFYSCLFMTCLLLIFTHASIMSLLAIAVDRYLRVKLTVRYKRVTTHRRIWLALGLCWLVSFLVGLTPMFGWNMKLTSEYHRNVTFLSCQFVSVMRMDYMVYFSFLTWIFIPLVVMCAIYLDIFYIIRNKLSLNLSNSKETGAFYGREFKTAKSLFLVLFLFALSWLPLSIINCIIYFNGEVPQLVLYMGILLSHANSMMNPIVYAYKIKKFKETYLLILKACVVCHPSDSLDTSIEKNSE
# Assay: Adenosine 3 receptor competition radioligand binding, [125I] AB-MECA, HEK293 membranes
# Conditions: Table 17, Adenosine A3 Receptor Selective Compounds
row,Compound,Ki-A3 (selectivity versus other three subtypes)
1,CC(=O)NC(CNc1nc(-c2ccccc2)nc2[nH]c(C)c(C)c12)C(C)C (centres unmarked) [Compound 1700],* (at least 10 times more selective than other three subtypes.)
2,CCN(CC)C(=O)NCCNc1nc(-c2ccccc2)nc2[nH]c(C)c(C)c12 [Compound 1701],* (at least 10 times more selective than other three subtypes.)
3,CC(=S)NCCNc1nc(-c2ccccc2)nc2[nH]c(C)c(C)c12 [Compound 1702],* (at least 10 times more selective than other three subtypes.)
4,OC1CCN(c2nc(-c3ccccc3)nc3[nH]c(-c4ccccc4)cc23)C1 (centres unmarked) [Compound 1703],* (at least 10 times more selective than other three subtypes.)
5,CCNC(=O)NCCCNc1nc(-c2ccccc2)nc2[nH]c(C)c(C)c12 [Compound 1704],* (at least 10 times more selective than other three subtypes.)
6,Cc1[nH]c2nc(-c3ccccc3)nc(NC3CCC(OC(=O)CN)C3)c2c1C (centres unmarked) [Compound 1705],* (at least 10 times more selective than other three subtypes.)
7,OC1CCC(Nc2nc(-c3ccccc3)nc3[nH]ccc23)C1 (centres unmarked) [Compound 1706],* (at least 10 times more selective than other three subtypes.)
8,O=C(NCCNc1nc(-c2ccccc2)nc2[nH]ccc12)c1ccc[nH]1 [Compound 1707],* (at least 10 times more selective than other three subtypes.)
9,O=C1NCCN1CCNc1nc(-c2ccccc2)nc2[nH]c(-c3ccccc3)cc12 [Compound 1708],* (at least 10 times more selective than other three subtypes.)
10,CC(C)C(Nc1nc(-c2ccccc2)nc2[nH]c(-c3ccccc3)cc12)C(N)=O (centres unmarked) [Compound 1709],* (at least 10 times more selective than other three subtypes.)
11,NC(=O)C(Cc1ccccc1)Nc1nc(-c2ccccc2)nc2[nH]c(-c3ccccc3)cc12 (centres unmarked) [Compound 1710],* (at least 10 times more selective than other three subtypes.)
12,OCC1CN(c2nc(-c3ccccc3)nc3[nH]ccc23)C1 [Compound 1711],* (at least 10 times more selective than other three subtypes.)
13,Clc1cccc(OCc2cc3c(NCCc4ccc[nH]4)nc(-c4ccccc4)nc3[nH]2)c1 [Compound 1712],* (at least 10 times more selective than other three subtypes.)
14,CC(=O)NCCNc1nc(-c2ccccc2)nc2[nH]c(CN3CCC[C@H]3CNc3ccccc3)cc12 [Compound 1713],* (at least 10 times more selective than other three subtypes.)
15,OC[C@@H](Nc1nc(-c2ccccc2)nc2[nH]c(COc3cccc(Cl)c3)cc12)c1ccccc1 [Compound 1714],* (at least 10 times more selective than other three subtypes.)
16,CNC(=O)N1CCCCC1CNc1nc(-c2ccccc2)nc2[nH]c(COc3cccc(Cl)c3)cc12 (centres unmarked) [Compound 1715],* (at least 10 times more selective than other three subtypes.)
